Results reported in ChEMBL document CHEMBL4325931, “Modification of the Thioglycosyl-Naphthalimides as Potent and Selective Human O-GlcNAcase Inhibitors” (ACS Med Chem Lett, 2018).
pIC50, pKi: −log10 of the molar value.

What was measured:
[1] = molecular target: T1, Beta-hexosaminidase subunit beta (Homo sapiens) (UniProt P07686); test: Inhibition of recombinant human His6-tagged HexB expressed in Pichia pastoris at 20 uM using 4-Mu-GlcNAc as substrate preincubated for 10 mins followed by substrate addition and measured after 30 mins by fluorescence assay relative to control
T1 sequence (whole entry): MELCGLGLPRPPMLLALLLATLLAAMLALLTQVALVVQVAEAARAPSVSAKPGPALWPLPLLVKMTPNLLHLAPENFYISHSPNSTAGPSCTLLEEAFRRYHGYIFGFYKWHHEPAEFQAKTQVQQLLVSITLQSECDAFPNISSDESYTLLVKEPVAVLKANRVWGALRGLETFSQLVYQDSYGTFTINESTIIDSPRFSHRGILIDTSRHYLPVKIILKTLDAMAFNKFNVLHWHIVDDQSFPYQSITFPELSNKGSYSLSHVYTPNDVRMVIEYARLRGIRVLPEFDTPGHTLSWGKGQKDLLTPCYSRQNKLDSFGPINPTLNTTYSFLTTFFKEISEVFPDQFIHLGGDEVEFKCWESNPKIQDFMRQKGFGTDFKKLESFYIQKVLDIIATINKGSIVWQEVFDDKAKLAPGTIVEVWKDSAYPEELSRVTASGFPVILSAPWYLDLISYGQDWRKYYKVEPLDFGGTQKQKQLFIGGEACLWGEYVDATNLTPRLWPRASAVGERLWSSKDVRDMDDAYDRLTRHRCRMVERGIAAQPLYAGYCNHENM

[2] = molecular target: T2, Protein O-GlcNAcase (Homo sapiens) (UniProt O60502); test: Inhibition of recombinant human OGA expressed in Escherichia coli BL21 (DE3) at 20 uM using 4-Mu-GlcNAc as substrate preincubated for 10 mins followed by substrate addition and measured after 30 mins by fluorescence assay relative to control
T2 sequence (whole entry): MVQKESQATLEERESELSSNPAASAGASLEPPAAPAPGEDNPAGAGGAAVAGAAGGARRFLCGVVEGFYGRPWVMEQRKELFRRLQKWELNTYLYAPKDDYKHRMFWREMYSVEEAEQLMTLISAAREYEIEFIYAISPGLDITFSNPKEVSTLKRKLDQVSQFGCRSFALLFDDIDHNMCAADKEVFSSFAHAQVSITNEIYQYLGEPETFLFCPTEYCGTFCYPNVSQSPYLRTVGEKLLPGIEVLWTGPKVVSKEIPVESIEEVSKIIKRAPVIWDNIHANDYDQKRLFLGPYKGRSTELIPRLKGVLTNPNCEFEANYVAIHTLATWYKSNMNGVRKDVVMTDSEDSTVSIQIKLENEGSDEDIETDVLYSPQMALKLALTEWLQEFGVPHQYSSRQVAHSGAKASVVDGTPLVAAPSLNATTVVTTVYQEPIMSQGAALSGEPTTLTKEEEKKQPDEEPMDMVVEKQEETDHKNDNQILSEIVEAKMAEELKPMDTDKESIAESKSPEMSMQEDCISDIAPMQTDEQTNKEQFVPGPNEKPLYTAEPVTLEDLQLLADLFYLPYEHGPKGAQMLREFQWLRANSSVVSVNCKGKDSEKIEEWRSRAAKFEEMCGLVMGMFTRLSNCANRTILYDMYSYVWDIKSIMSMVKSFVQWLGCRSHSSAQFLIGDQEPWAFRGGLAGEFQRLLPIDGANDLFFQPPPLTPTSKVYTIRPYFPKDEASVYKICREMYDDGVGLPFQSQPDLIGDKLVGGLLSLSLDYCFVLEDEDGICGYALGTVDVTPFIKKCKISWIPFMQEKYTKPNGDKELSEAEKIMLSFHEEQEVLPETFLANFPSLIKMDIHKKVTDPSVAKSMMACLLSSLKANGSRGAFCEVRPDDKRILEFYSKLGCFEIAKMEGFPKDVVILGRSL

Protein O-GlcNAcase [3] = molecular target: T3, Protein O-GlcNAcase (Homo sapiens, UniProt O60502); test: Inhibition of recombinant human OGA expressed in Escherichia coli BL21 (DE3) using varying levels of 4-Mu-GlcNAc as substrate preincubated for 10 mins followed by substrate addition and measured after 30 mins by dixon plot analysis
T3 sequence (O60502 whole entry): T2 sequence (whole entry)

[4] = molecular target: T1, Beta-hexosaminidase subunit beta (Homo sapiens); test: Inhibition of recombinant human His6-tagged HexB expressed in Pichia pastoris at 100 uM using varying levels of 4-Mu-GlcNAc as substrate preincubated for 10 mins followed by substrate addition and measured after 30 mins by dixon plot analysis relative to control
Homo sapiens = species: Homo sapiens; test: Selectivity ratio of Ki for recombinant human His6-tagged HexB expressed in Pichia pastoris to Ki for recombinant human OGA expressed in Escherichia coli BL21 (DE3)
[5] = molecular target: T1, Beta-hexosaminidase subunit beta (Homo sapiens); test: Inhibition of recombinant human His6-tagged HexB expressed in Pichia pastoris at 20 uM using 4-Mu-GlcNAc as substrate measured after 30 mins by fluorescence assay relative to control
[6] = molecular target: T2, Protein O-GlcNAcase (Homo sapiens); test: Inhibition of recombinant human OGA expressed in Escherichia coli BL21 (DE3) at 20 uM using 4-Mu-GlcNAc as substrate measured after 30 mins by fluorescence assay relative to control
Protein O-GlcNAcase [7] = molecular target: T3, Protein O-GlcNAcase; test: Inhibition of recombinant human OGA expressed in Escherichia coli BL21 (DE3) using 4-Mu-GlcNAc as substrate preincubated for 10 mins followed by substrate addition and measured after 30 mins by fluorescence assay
[8] = molecular target: T4, Beta-hexosaminidase subunit beta (Homo sapiens, UniProt P07686); test: Inhibition of recombinant human His6-tagged HexB expressed in Pichia pastoris using 4-Mu-GlcNAc as substrate preincubated for 10 mins followed by substrate addition and measured after 30 mins by fluorescence assay
T4 sequence (P07686 whole entry): T1 sequence (whole entry)

[9] = molecular target: T4, Beta-hexosaminidase subunit beta; test: Inhibition of recombinant human His6-tagged HexB expressed in Pichia pastoris using varying levels of 4-Mu-GlcNAc as substrate preincubated for 10 mins followed by substrate addition and measured after 30 mins by dixon plot analysis
[10] = Inhibition of Ostrinia furnacalis beta-N-acetylhexosaminidase using pNP-beta-GlcNAc as substrate by dixon plot analysis
[11] = molecular target: Beta-hexosaminidase (Homo sapiens); test: Inhibition of human beta-N-acetylhexosaminidase using pNP-beta-GlcNAc as substrate by dixon plot analysis

SMILES | inhibition [1] [%] | inhibition [2] [%] | pKi (Protein O-GlcNAcase [3]) | Ratio Ki (Homo sapiens) | pKi [9] | other results
CC(=O)N[C@@H]1[C@@H](O)[C@H](O)[C@@H](CO)O[C@H]1SCCNCCN1C(=O)c2cccc3c(N4CCCCC4)ccc(c23)C1=O | 0 | 36.7 | – | – | – | –
CC(=O)N[C@@H]1[C@@H](O)[C@H](O)[C@@H](CO)O[C@H]1SCCNCCCN1C(=O)c2cccc3c(N4CCCCC4)ccc(c23)C1=O | 0 | 87.6 | 6.22 | > 167 | – | inhibition [4]: < 50%
CC(=O)N[C@@H]1[C@@H](O)[C@H](O)[C@@H](CO)O[C@H]1SCCNCCCN1C(=O)c2cccc3cccc(c23)C1=O | – | – | – | 8 | – | inhibition [5]: 38.7%; inhibition [6]: 82.4%
CC(=O)N[C@@H]1[C@@H](O)[C@H](O)[C@@H](CO)O[C@H]1SCCCNCCN1C(=O)c2cccc3c(N(C)C)ccc(c23)C1=O | 0 | 26.6 | – | – | – | –
CC(=O)N[C@@H]1[C@@H](O)[C@H](O)[C@@H](CO)O[C@H]1SCCNCCCN1C(=O)c2cccc3c(N(C)C)ccc(c23)C1=O | 0 | 40.9 | – | – | – | –
CC(=O)N[C@@H]1[C@@H](O)[C@H](O)[C@@H](CO)O[C@H]1SCCNCCN1C(=O)c2cccc3c(N(C)C)ccc(c23)C1=O | 0 | 32.6 | – | – | – | pIC50 (Protein O-GlcNAcase [7]): 4.60; pIC50 [8]: < 4.00
CC(=O)N[C@@H]1[C@@H](O)[C@H](O)[C@@H](CO)O[C@H]1SCCCNCCN1C(=O)c2cccc3c([N+](=O)[O-])ccc(c23)C1=O | 0 | 25.6 | – | – | – | –
CC(=O)N[C@@H]1[C@@H](O)[C@H](O)[C@@H](CO)O[C@H]1SCCNCCCN1C(=O)c2cccc3c(Cl)ccc(c23)C1=O | 70.8 | 83.3 | 6.10 | 2 | 5.80 | –
CC(=O)N[C@@H]1[C@@H](O)[C@H](O)[C@@H](CO)O[C@H]1SCCNCCN1C(=O)c2cccc3c([N+](=O)[O-])ccc(c23)C1=O | 13.8 | 25.1 | – | – | – | –
CC(=O)N[C@@H]1[C@@H](O)[C@H](O)[C@@H](CO)O[C@H]1SCCCNCCN1C(=O)c2cccc3c(Br)ccc(c23)C1=O | 60.6 | 75.7 | 5.46 | 1.5 | 5.29 | –
CC(=O)N[C@@H]1[C@@H](O)[C@H](O)[C@@H](CO)O[C@H]1SCCCNCCN1C(=O)c2cccc3c(Cl)ccc(c23)C1=O | 75.2 | 83.6 | 6.15 | 2.3 | 5.80 | –
COc1ccc2c3c(cccc13)C(=O)N(CCCNCCS[C@@H]1O[C@H](CO)[C@@H](O)[C@H](O)[C@H]1NC(C)=O)C2=O | 47.9 | 73.1 | 5.80 | 13.8 | 4.66 | –
CC(=O)N[C@@H]1[C@@H](O)[C@H](O)[C@@H](CO)O[C@H]1SCCNCCN1C(=O)c2cccc3c(Cl)ccc(c23)C1=O | 73.8 | 66.1 | 5.70 | 0.6 | 5.92 | –
Cc1nnc(CNCCN2C(=O)c3cccc4cccc(c34)C2=O)s1 | – | – | – | – | – | pKi [10]: 5.37; pKi [11]: 5.66
CC(=O)N[C@@H]1[C@@H](O)[C@H](O)[C@@H](CO)O[C@H]1SCCNCCN1C(=O)c2cccc3c(Br)ccc(c23)C1=O | 73.3 | 73.2 | 5.92 | 2.2 | 5.59 | –
COc1ccc2c3c(cccc13)C(=O)N(CCCNCCCS[C@@H]1O[C@H](CO)[C@@H](O)[C@H](O)[C@H]1NC(C)=O)C2=O | 45.2 | 68 | 4.80 | 1.6 | 4.61 | –
CC(=O)N[C@@H]1[C@@H](O)[C@H](O)[C@@H](CO)O[C@H]1SCCNCCCN1C(=O)c2cccc3c(Br)ccc(c23)C1=O | 70.5 | 84.7 | 6.05 | 2 | 5.74 | –
COc1ccc2c3c(cccc13)C(=O)N(CCNCCS[C@@H]1O[C@H](CO)[C@@H](O)[C@H](O)[C@H]1NC(C)=O)C2=O | 22.5 | 56.4 | 5.17 | 8.4 | 4.25 | –
CC(=O)N[C@@H]1[C@@H](O)[C@H](O)[C@@H](CO)O[C@H]1SCCCNCCCN1C(=O)c2cccc3c(N(C)C)ccc(c23)C1=O | 0 | 28.2 | – | – | – | –
CC(=O)N[C@@H]1[C@@H](O)[C@H](O)[C@@H](CO)O[C@H]1SCCNCCCN1C(=O)c2cccc3c([N+](=O)[O-])ccc(c23)C1=O | 8 | 55 | 5.08 | > 12 | – | inhibition [4]: < 50%
CC(=O)N[C@@H]1[C@@H](O)[C@H](O)[C@@H](CO)O[C@H]1SCCCNCCN1C(=O)c2cccc3c(N4CCCCC4)ccc(c23)C1=O | 0 | 67.5 | 5.49 | > 31.2 | – | inhibition [4]: < 50%
CC(=O)N[C@@H]1[C@@H](O)[C@H](O)[C@@H](CO)O[C@H]1SCCCNCCCN1C(=O)c2cccc3c(Br)ccc(c23)C1=O | 65 | 59.2 | 5.66 | 2 | 5.36 | –
CC(=O)N[C@@H]1[C@@H](O)[C@H](O)[C@@H](CO)O[C@H]1SCCCNCCCN1C(=O)c2cccc3c(N4CCCCC4)ccc(c23)C1=O | 0 | 49.1 | – | – | – | –
CC(=O)N[C@@H]1[C@@H](O)[C@H](O)[C@@H](CO)O[C@H]1SCCCNCCCN1C(=O)c2cccc3c(Cl)ccc(c23)C1=O | 74.3 | 68.9 | 5.68 | 0.9 | 5.74 | –
Cc1nnc(CNCCN2C(=O)c3cccc4c(N(C)C)ccc(c34)C2=O)s1 | – | – | – | – | – | pKi [10]: 6.52; pKi [11]: < 4.00
CC(=O)N[C@@H]1[C@@H](O)[C@H](O)[C@@H](CO)O[C@H]1SCCCNCCCN1C(=O)c2cccc3c([N+](=O)[O-])ccc(c23)C1=O | 0 | 20 | – | – | – | –
COc1ccc2c3c(cccc13)C(=O)N(CCNCCCS[C@@H]1O[C@H](CO)[C@@H](O)[C@H](O)[C@H]1NC(C)=O)C2=O | 39 | 34.3 | – | – | – | –
